# Data as given in a compilation of properties of binary mixtures (doi:10.1016/j.molliq.2020.114720).
# Experiment: xn = mol fraction of the nth substance listed
# Conditions: 101 kPa
smiles,measurement,setting,value
CC(=O)[O-].CCCCC[n+]1ccccc1 + O,electrical conductivity,"293.15 K, x1 = 0.9143",0.0061 S/m
same,electrical conductivity,"293.15 K, x1 = 0.948",0.0049 S/m
same,electrical conductivity,"293.15 K, x1 = 0.9673",0.0043 S/m
same,electrical conductivity,"293.15 K, x2 = 0.0023",0.0034 S/m
same,electrical conductivity,"298.15 K, x1 = 0.9143",0.0106 S/m
same,electrical conductivity,"298.15 K, x1 = 0.9314",0.0094 S/m
same,electrical conductivity,"298.15 K, x1 = 0.9673",0.007 S/m
same,electrical conductivity,"298.15 K, x2 = 0.0023",0.0053 S/m
same,electrical conductivity,"303.15 K, x1 = 0.9143",0.0175 S/m
same,electrical conductivity,"303.15 K, x1 = 0.9163",0.0173 S/m
same,electrical conductivity,"303.15 K, x1 = 0.948",0.0128 S/m
same,electrical conductivity,"303.15 K, x1 = 0.9673",0.0112 S/m
same,electrical conductivity,"303.15 K, x2 = 0.0023",0.0081 S/m
same,electrical conductivity,"308.15 K, x1 = 0.9143",0.024 S/m
same,electrical conductivity,"308.15 K, x1 = 0.948",0.0185 S/m
same,electrical conductivity,"308.15 K, x1 = 0.9673",0.0162 S/m
same,electrical conductivity,"308.15 K, x2 = 0.0023",0.0121 S/m
same,electrical conductivity,"313.15 K, x1 = 0.9143",0.036 S/m
same,electrical conductivity,"313.15 K, x1 = 0.9314",0.0335 S/m
same,electrical conductivity,"313.15 K, x1 = 0.948",0.029 S/m
same,electrical conductivity,"313.15 K, x1 = 0.9673",0.0245 S/m
same,electrical conductivity,"313.15 K, x2 = 0.0023",0.0179 S/m
same,electrical conductivity,"318.15 K, x1 = 0.9143",0.051 S/m
same,electrical conductivity,"318.15 K, x1 = 0.9314",0.0438 S/m
same,electrical conductivity,"318.15 K, x2 = 0.0023",0.0266 S/m
same,electrical conductivity,"323.15 K, x1 = 0.9143",0.071 S/m
same,electrical conductivity,"323.15 K, x1 = 0.9314",0.0623 S/m
same,electrical conductivity,"323.15 K, x1 = 0.948",0.0532 S/m
same,electrical conductivity,"323.15 K, x1 = 0.9673",0.0459 S/m
same,electrical conductivity,"328.15 K, x1 = 0.9143",0.093 S/m
same,electrical conductivity,"328.15 K, x1 = 0.9163",0.092 S/m
same,electrical conductivity,"328.15 K, x1 = 0.948",0.0715 S/m
same,electrical conductivity,"328.15 K, x1 = 0.9673",0.061 S/m
same,electrical conductivity,"328.15 K, x2 = 0.0023",0.045 S/m
same,electrical conductivity,"333.15 K, x1 = 0.9163",0.125 S/m
same,electrical conductivity,"333.15 K, x1 = 0.9314",0.111 S/m
same,electrical conductivity,"333.15 K, x1 = 0.948",0.095 S/m
same,electrical conductivity,"333.15 K, x1 = 0.9673",0.0805 S/m
same,electrical conductivity,"333.15 K, x2 = 0.0023",0.0572 S/m
same,electrical conductivity,"338.15 K, x1 = 0.9163",0.171 S/m
same,electrical conductivity,"338.15 K, x1 = 0.9314",0.151 S/m
same,electrical conductivity,"338.15 K, x1 = 0.9673",0.109 S/m
same,electrical conductivity,"338.15 K, x2 = 0.0023",0.0766 S/m
same,electrical conductivity,"343.15 K, x1 = 0.9143",0.226 S/m
same,electrical conductivity,"343.15 K, x1 = 0.9163",0.222 S/m
same,electrical conductivity,"343.15 K, x1 = 0.948",0.17 S/m
same,electrical conductivity,"343.15 K, x1 = 0.9673",0.138 S/m
same,electrical conductivity,"343.15 K, x2 = 0.0023",0.0955 S/m
